≈ marks a conversion by molar mass, not a printed value. Where two headings read alike, the source gives them in different places.
Experiments:
[1] = system: Pseudomonas aeruginosa ATCC 27853; test: MIC and MBC measurement; format: cell-based
Procedure: (§1) General: Microorganisms. Reference strains were purchased from the American Type Culture Collection (Rockville, MD) or Bactrol disks from Difeo Laboratories (Detroit, MI). […] Bacterial strains were maintained on Mueller-Hinton agar plates, and Candida albicans was maintained on Sabouraud Dextrose agar plates.
(§2) Aliquots (20 mL) of the homogeneous solution were then poured in sterile plastic petri dishes (100 x 15 mm, Fisher Scientific). Solutions of compounds were made by dissolving the HCl salt of the respective compound into an appropriate amount of deionized and sterilized water followed by microfiltration.
(§3) Aliquots of 1 mL of the suspension were added to test tubes containing 1 mL TSB and incrementally varied concentrations of cholic acid derivatives and/or erythromycin or novobiocin. […] Additionally, an alliquot from each of the samples showing no measurable turbidity was subcultured on TSA plates (alliquots were diluted to provide fewer than 300 CFU). Colonies that grew on the subculture after overnight incubation were counted and the number of CFU/mL in the samples were calculated. The calculated values were compared to the number of CFU/mL in the original inoculum.

[2] = system: E. coli (ATCC 10798); test: MIC and MBC measurement; format: cell-based, Escherichia coli
Procedure: as §1, §2, §3

[3] = system: Pseudomonas aeruginosa ATCC 27853; test: Sensitization to erythromycin, novobiocin or rifampicin (permeabilization, FIC); format: cell-based; conditions: Table 7; P. aureginosa (ATCC 27853); with erythromycin
Procedure: (§4) FICs can be performed by checkerboard titrations of compounds in one dimension of a microtiter plate, and of antibiotics in the other dimension, for example. The FIC is calculated by looking at the impact of one antibiotic on the MIC of the other and vice versa. […] Preferably, an FIC of less than 0.5 is obtained for synergism. As used herein, FIC can be determined as follows: FIC = (MIC(compound in combination))/(MIC(compound alone)) + (MIC(antibiotic in combination))/(MIC(antibiotic alone)) [formula]
(§5) Aliquots of 1 mL of the suspension were added to test tubes containing 1 mL TSB and incrementally varied concentrations of cholic acid derivatives and/or erythromycin or novobiocin. In the sensitization experiments, erythromycin or novobiocin were added 15 minutes later than the cholic acid derivatives. The samples were subjected to stationary incubation at 37°C for 24 hours. Sample turbidity was determined by measuring absorption at 760 nm (HP 8453 UV-Visible Chemstation, Hewlett Packard). Additionally, an alliquot from each of the samples showing no measurable turbidity was subcultured on TSA plates (alliquots were diluted to provide fewer than 300 CFU). Colonies that grew on the subculture after overnight incubation were counted and the number of CFU/mL in the samples were calculated. The calculated values were compared to the number of CFU/mL in the original inoculum.
Concentrations of 0.5, 1.0 or 3.0 µg/mL of these antibiotics were used, and the concentrations of the cholic acid derivatives required to inhibit bacterial growth of Gram-negative strains were determined.

[4] = system: E. coli (ATCC 10798); test: Sensitization to erythromycin or novobiocin (outer membrane permeabilization, FIC); format: cell-based, Escherichia coli; conditions: for concentration required to lower the MIC of erythromycin from 70 µg/mL to 1 µg/mL: Table 2; for MBC: Escherichia coli; for (a) Concentration required to lower the MIC of erythromycin from 70 to 1 µg/mL / (b) MBC with 1 µg/mL erythromycin / FIC^c (FIC values with erythromycin) / (d) Concentration required to lower the MIC of novobiocin from >500 to 1 µg/mL / FIC^c (FIC values with novobiocin): Table 9, Escherichia coli (ATCC 10798)
Procedure: as §4, §5
They were also tested for the ability to permeabilize the outer membrane of Gram-negative bacteria, causing sensitization to hydrophobic antibiotics that cannot cross the outer membrane. The permeabilization of the outer membrane was measured using erythromycin and novobiocin.

[5] = ATCC27853, Table 6, P. aureginosa (ATCC 27853)
[6] = Escherichia coli, ATCC10798, Table 1, E. coli (ATCC 10798), read-out: MIC
[7] = E. coli (ATCC 10798), with erythromycin
[8] = Escherichia coli, ATCC10798, Table 1, E. coli (ATCC 10798), read-out: MBC
[9] = Table 9, Escherichia coli (ATCC 10798)
[10] = ATCC10798, Table 2, E. coli (ATCC 10798), with erythromycin
[11] = ATCC10798, Table 9, Escherichia coli (ATCC 10798), read-out: MBC
[12] = ATCC10798, Table 9, Escherichia coli (ATCC 10798), read-out: MIC

| Compound | MIC [2, 6] [µg/mL] | concentration required to lower the MIC of erythromycin from 70 µg/mL to 1 µg/mL [4, 7] [µg/mL] | (a) Concentration required to lower the MIC of erythromycin from 70 to 1 µg/mL [4] [µg/mL] | (b) MBC with 1 µg/mL erythromycin [4] [µg/mL] | FIC^c (FIC values with erythromycin) [4] | (d) Concentration required to lower the MIC of novobiocin from >500 to 1 µg/mL [4] [µg/mL] | FIC^c (FIC values with novobiocin) [4] | MBC [2, 11] [µg/mL] | MIC [2, 12] [µg/mL] | also measured |
| --- | --- | --- | --- | --- | --- | --- | --- | --- | --- | --- |
| C[C@H](CCCN(C)Cc1ccccc1)[C@H]1CC[C@H]2[C@@H]3[C@H](OCCCCN)C[C@@H]4C[C@H](OCCCCN)CC[C@]4(C)[C@H]3C[C@H](OCCCCN)[C@]12C [Compound 3] | 6 (≈ 8.44 µM) | 1.5 | – | – | – | – | – | – | – | MIC [1, 5]: 16 µg/mL (≈ 22.5 µM); concentration required to lower the MIC of erythromycin from 240 µg/mL to 5 µg/mL [3]: 6 µg/mL |
| C[C@H](CCCN(C)Cc1ccccc1)[C@H]1CC[C@H]2[C@@H]3[C@H](OCCN)C[C@@H]4C[C@@H](OCCN)CC[C@]4(C)[C@H]3C[C@H](OCCN)[C@]12C [Compound 8] | 46 (≈ 73.4 µM) | 10 | – | – | – | – | – | – | – | MIC [1, 5]: 50 µg/mL (≈ 79.7 µM); concentration required to lower the MIC of erythromycin from 240 µg/mL to 5 µg/mL [3]: 40 µg/mL |
| CCCCCCCCOCCC[C@@H](C)[C@H]1CC[C@H]2[C@@H]3[C@H](OCCCN)C[C@@H]4C[C@H](OCCCN)CC[C@]4(C)[C@H]3C[C@H](OCCCN)[C@]12C [Compound 9] | 3 (≈ 4.42 µM) | 3 | 3.0 | 3.0 | 1.0 | – | – | – | – | MIC [1, 5]: 8 µg/mL (≈ 11.8 µM); MBC [2, 8]: 10 µg/mL (≈ 14.7 µM); MBC [2, 9]: 10 µg/mL (≈ 14.7 µM); MIC [2, 9]: 3.0 µg/mL (≈ 4.42 µM); concentration required to lower the MIC of erythromycin from 240 µg/mL to 5 µg/mL [3]: 5 µg/mL; MBC [4, 10]: 3 µg/mL |
| CC(O)[C@H]1CC[C@H]2[C@@H]3[C@H](OCCCN)C[C@@H]4C[C@H](OCCCN)CC[C@]4(C)[C@H]3C[C@H](OCCCN)[C@]12C (stereo partly shown) [Compound 11] | 140 (≈ 267 µM) | 40 | 20 | 180 | 0.16 | 40 | 0.29 | – | – | MBC [2, 8]: > 160 µg/mL; MBC [2, 9]: >160 µg/mL; MIC [2, 9]: 140 µg/mL (≈ 267 µM); MBC [4, 10]: > 160 µg/mL; MBC ([4]; ATCC10798, Table 3, E. coli (ATCC 10798), with novobiocin): 140 µg/mL |
| C[C@H](CCCOCCC[C@@H](C)[C@H]1CC[C@H]2[C@@H]3[C@H](OCCCN)C[C@@H]4C[C@H](OCCCN)CC[C@]4(C)[C@H]3C[C@H](OCCCN)[C@]12C)[C@H]1CC[C@H]2[C@@H]3[C@H](OCCCN)C[C@@H]4C[C@H](OCCCN)CC[C@]4(C)[C@H]3C[C@H](OCCCN)[C@]12C [Compound 12] | 4 (≈ 3.59 µM) | 1.5 | – | – | – | – | – | – | – | MBC [2, 8]: 4 µg/mL (≈ 3.59 µM); MBC [4, 10]: 2.5 µg/mL |
| C[C@H](CO)[C@H]1CC[C@H]2[C@@H]3[C@H](OCCCN)C[C@@H]4C[C@H](OCCCN)CC[C@]4(C)[C@H]3C[C@H](OCCCN)[C@]12C [Compound 108] | – | – | 4.0 | 140 | 0.071 | 12 | 0.17 | 140 (≈ 260 µM) | 70 (≈ 130 µM) | – |
| C[C@H](CCO)[C@H]1CC[C@H]2[C@@H]3[C@H](OCCCN)C[C@@H]4C[C@H](OCCCN)CC[C@]4(C)[C@H]3C[C@H](OCCCN)[C@]12C [Compound 109] | – | – | 4.0 | 80 | 0.071 | 15 | 0.22 | 120 (≈ 217 µM) | 70 (≈ 127 µM) | – |
| COCCC[C@@H](C)[C@H]1CC[C@H]2[C@@H]3[C@H](OCCCN)C[C@@H]4C[C@H](OCCCN)CC[C@]4(C)[C@H]3C[C@H](OCCCN)[C@]12C [Compound 111] | – | – | 1.0 | 20 | 0.048 | 2.0 | 0.069 | 33 (≈ 56.9 µM) | 30 (≈ 51.7 µM) | – |
| CCCCCOCCC[C@@H](C)[C@H]1CC[C@H]2[C@@H]3[C@H](OCCCN)C[C@@H]4C[C@H](OCCCN)CC[C@]4(C)[C@H]3C[C@H](OCCCN)[C@]12C [Compound 113] | – | – | 0.8 | 2.0 | 0.28 | 1.0 | 0.27 | 5 (≈ 7.86 µM) | 3 (≈ 4.72 µM) | – |
| C[C@H](CCCOS(=O)(=O)O)[C@H]1CC[C@H]2[C@@H]3[C@H](OCCCN)C[C@@H]4C[C@H](OCCCN)CC[C@]4(C)[C@H]3C[C@H](OCCCN)[C@]12C [Compound 132] | – | – | – | – | – | – | – | – | – | MIC ([2]; Escherichia coli, ATCC10798, E. coli (ATCC 10798), read-out: MIC): 60 µg/mL (≈ 92.9 µM); concentration required to lower the MIC of erythromycin to 1 µg/mL ([4]; E. coli (ATCC 10798)): 4.0 µg/mL |
| CO[C@@H]1[C@@H](OC(N)=O)[C@@H](O)[C@H](Oc2ccc3c(O)c(NC(=O)c4ccc(O)c(CC=C(C)C)c4)c(=O)oc3c2C)OC1(C)C [novobiocin, reference compound] | – | – | – | – | – | – | – | – | – | MIC ([1]; ATCC27853, antibiotic alone, P. aureginosa (ATCC 27853)): > 500 µg/mL; MIC ([2]; Escherichia coli, ATCC10798, antibiotic alone, E. coli (ATCC 10798), read-out: MIC): > 500 µg/mL |

From EP1311531B1, “STEROID DERIVED ANTIBIOTICS” (Brigham Young University, priority 2000, dated 2002)
